Laboratory results reported in patent US11897901B1, “6-amino-8,9-di(4-methoxyphenyl)-2-oxo-3,9-dihydro-2H-[1,3]thiazolo[5′,4′:5,6]pyrano[2,3-b]pyridine-7-carbonitrile as anticancer compound” (KING FAISAL UNIVERSITY, priority 2023, dated 2024).

Experiments:
[1] = system: human osteosarcoma cells (MG-63); assay: Assessment of cytotoxicity by SRB assay, MG-63 cells; format: cell-based; conditions: 0.01 μM to 100 μM, 72 h
Procedure: (§1) The human prostate cancer cells (PC3) and human osteosarcoma cells (MG-63) were obtained from Nawah Scientific Inc. (Mokatam, Cairo, Egypt) and cultured in DMEM (Dulbecco's modified eagle's medium), Gibco, USA, supplemented with fetal bovine serum (FBS) at a concentration of 10% and 100 U/mL of penicillin and streptomycin (PS). The Cells were incubated at 37° C. in a humidified environment that contained 5% CO2.
(§2) Cells were seeded in 96-well plates as aliquots of 100 μL cell suspension and incubated in a complete media for 24 h. Afterward, cells were treated with 6-amino-8,9-di(4-methoxyphenyl)-2-oxo-3,9-dihydro-2H-[1,3]thiazolo[5′,4′:5,6]pyrano[2,3-b]pyridine-7-carbonitrile (2) at diverse concentrations ranging from 0.01 μM to 100 μM for 72 h. Then, cells were fixed at 4° C. for one hour with 150 μL of 10% trichloroacetic acid (TCA). After washing the cells five times with distilled water, 70 μL of sulforhodamine (SRB) solution (0.4% w/v) was added and incubated for 10 min at room temperature in a dark place. […] Then, 150 μL of Tris pH 10.5 (10 mM) was added, and the absorbance was measured at 540 nm using a BMG LABTECH®-FLUOstar Omega microplate reader (Ortenberg, Germany). Half maximal inhibitory concentration (IC50) values were calculated for each experiment using GraphPad Prism 6 software. […]
(§3) The inhibition was calculated using the following equation: Inhibition %=100−Average Viability

[2] = system: human prostate cancer cells (PC3); assay: Assessment of cytotoxicity by SRB assay, PC3 cells; format: cell-based; conditions: 0.01 μM to 100 μM, 72 h
Procedure: as §1, §2, §3

melting point: 234 to 236 °C
SMILES: COc1ccc(-c2c(C#N)c(N)nc3c2C(c2ccc(OC)cc2)c2sc(=O)[nH]c2O3)cc1 (stereo not drawn) [Compound 2, 6-amino-8,9-di(4-methoxyphenyl)-2-oxo-3,9-dihydro-2H-[1,3]thiazolo[5′,4′:5,6]pyrano[2,3-b]pyridine-7-carbonitrile]
antiproliferative activities against osteosarcoma (MG-63) cells [1]: excellent antiproliferative activities
antiproliferative activities against cancer cells (PC3) [2]: excellent antiproliferative activities
